Some test systems named below: A498 renal; ACHN renal; HCT-116 colon; HCT-15 colon; MDA-MB-435; NCI/ADR-RES ovarian; OVCAR-3 ovarian; OVCAR-8 ovarian; PC-3 prostate; SN12C renal.
What all share (assay): NCI tumour cell line growth inhibition, 48 h

Several values for one entry are separate records, joined by “and”; a condition that tells them apart may be missing. Equal entries are not always repeated.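 Grown in 96-well plates, cells were treated for 48 hours with each compound at five concentrations. Insufficient inhibition: endpoint recorded as highest concentration tested. GI50 is the concentration that inhibits growth by half. TGI denotes the concentration required for complete inhibition of growth.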

Regarding `COC(C(=O)C(O)C(C)O)C1Cc2cc3cc(OC4CC(OC5CC(O)C(O)C(C)O5)C(O)C(C)O4)c(C)c(O)c3c(O)c2C(=O)C1OC1CC(OC2CC(O)C(OC3CC(C)(O)C(O)C(C)O3)C(C)O2)C(O)C(C)O1` (configuration not stated), the GI50 in the assay with A498 renal was 11.2 ng/mL and 0.0278 ng/mL; in the assay with ACHN renal it was 16.2 ng/mL and 32.6 ng/mL; in the assay with HCT-116 colon, 11.2 ng/mL and 15 ng/mL; with HCT-15 colon, 244 ng/mL and 2.99 ng/mL; in the assay on MDA-MB-435, 12.1 ng/mL and 339 ng/mL; with NCI/ADR-RES ovarian it was 3870 ng/mL and 80.9 ng/mL. The GI50 is 11.2 ng/mL and 4.13 ng/mL in the assay with OVCAR-3 ovarian; 11.2 ng/mL and 0.822 ng/mL with OVCAR-8 ovarian; 19.4 ng/mL and 39.6 ng/mL in the assay with PC-3 prostate; 11.2 ng/mL and 1.1 ng/mL in the assay on SN12C renal. Further, the TGI is 112000 ng/mL and > 150000 ng/mL with ACHN renal; 2650 ng/mL and 1500 ng/mL in the assay with HCT-15 colon.

`O=C(c1ccco1)c1c(C(F)(F)F)nc2ccc(C(F)(F)F)cc2[n+]1[O-]`: the GI50 with A498 renal was 42.4 µM; in the assay with ACHN renal it was 23.4 µM; with HCT-116 colon, 29.3 µM; in the assay on HCT-15 colon, greater than 86.9 µM; with MDA-MB-435, greater than 81.6 µM; in the assay on NCI/ADR-RES ovarian, 44.2 µM. For the same compound, the GI50 with OVCAR-3 ovarian was 28 µM; in the assay with OVCAR-8 ovarian, 35.3 µM; in the assay on PC-3 prostate it was 41.9 µM; in the assay on SN12C renal it was 43.4 µM. The TGI was greater than 79.7 µM with A498 renal; 60 µM in the assay on ACHN renal; greater than 100 µM in the assay with HCT-116 colon; greater than 100 µM in the assay with HCT-15 colon; greater than 100 µM in the assay with MDA-MB-435; greater than 100 µM with NCI/ADR-RES ovarian. The TGI is greater than 75.1 µM in the assay on OVCAR-3 ovarian, greater than 100 µM in the assay on OVCAR-8 ovarian, greater than 100 µM in the assay with PC-3 prostate and greater than 100 µM with SN12C renal.

With `O=C1C(Nc2ccc(Br)cc2)=C(I)C(=O)c2ncccc21`, the GI50 in the assay on A498 renal is 1.69 µM; in the assay on ACHN renal it was 0.738 µM; in the assay with HCT-116 colon, 0.336 µM; in the assay on HCT-15 colon it was 0.588 µM; in the assay on MDA-MB-435, 0.911 µM; in the assay on NCI/ADR-RES ovarian it was 1.14 µM. Further, the GI50 was 0.154 µM in the assay with OVCAR-3 ovarian, 0.809 µM in the assay with OVCAR-8 ovarian, 0.888 µM with PC-3 prostate and 0.828 µM with SN12C renal. Moreover, the TGI in the assay with A498 renal was found to be 8.82 µM; with ACHN renal, 1.56 µM; with HCT-116 colon, 1.08 µM; with HCT-15 colon, 1.79 µM; with MDA-MB-435 it was 1.72 µM; with NCI/ADR-RES ovarian, 3.32 µM. Moreover, the TGI was found to be 0.524 µM with OVCAR-3 ovarian, 1.69 µM in the assay on OVCAR-8 ovarian, 6.44 µM with PC-3 prostate and 1.74 µM in the assay on SN12C renal.

Turning to `CCC(C)[C@H](NC(=O)NC(=O)NC(=O)CI)C(=O)OC` (some centres not stated), the GI50 was 16.2 µM in the assay with A498 renal; 2.11 µM in the assay on ACHN renal; 6.05 µM in the assay with HCT-116 colon; 1.76 µM with HCT-15 colon; 10.5 µM in the assay with MDA-MB-435; 21.2 µM in the assay on NCI/ADR-RES ovarian. Besides, the GI50 with OVCAR-3 ovarian is 2.2 µM; with OVCAR-8 ovarian, 13.6 µM; with PC-3 prostate it was 12.2 µM; with SN12C renal, 4.28 µM. Also, the TGI in the assay on A498 renal worked out at 30.5 µM; in the assay on ACHN renal, 4.43 µM; with HCT-116 colon, 18.3 µM; in the assay with HCT-15 colon it was 3.42 µM; in the assay on MDA-MB-435 it was 22.3 µM; in the assay with NCI/ADR-RES ovarian, 60 µM. The TGI amounted to 4.66 µM in the assay on OVCAR-3 ovarian, 29.3 µM in the assay on OVCAR-8 ovarian, 26.7 µM in the assay on PC-3 prostate and 20.4 µM in the assay with SN12C renal.

Turning to `CC1SC2(CCC(c3ccccc3)CC2)N(NC(=O)c2[nH]c3ccc(F)cc3c2-c2ccccc2)C1=O` (configuration not stated), the GI50 in the assay with A498 renal was 13 µM; with ACHN renal it was 3.4 µM; in the assay on HCT-116 colon, 1.94 µM; with HCT-15 colon, 2.43 µM; in the assay with MDA-MB-435 it was 6.11 µM; with NCI/ADR-RES ovarian, 3.58 µM. The GI50 in the assay on OVCAR-3 ovarian is 4.33 µM; in the assay on OVCAR-8 ovarian, 2.87 µM; in the assay with PC-3 prostate, 1.56 µM; in the assay with SN12C renal it was 3.56 µM. For the same compound, the TGI worked out at 28.2 µM with A498 renal; 14.9 µM with ACHN renal; 4.56 µM in the assay with HCT-116 colon; 11.1 µM in the assay on HCT-15 colon; 39.3 µM in the assay on MDA-MB-435; 23.4 µM with NCI/ADR-RES ovarian. Moreover, the TGI with OVCAR-3 ovarian worked out at 53.8 µM; in the assay on OVCAR-8 ovarian, 19 µM; in the assay on PC-3 prostate, 5.34 µM; in the assay with SN12C renal, 12.7 µM.

Regarding `c1ccc(CN2CCC3(CC2)SSC2(CCN(Cc4ccccc4)CC2)SS3)cc1`, the TGI with A498 renal, with ACHN renal, in the assay on HCT-116 colon, in the assay on HCT-15 colon, in the assay on MDA-MB-435 and in the assay on NCI/ADR-RES ovarian was greater than 100 µM in each case. The TGI with OVCAR-3 ovarian, with OVCAR-8 ovarian, in the assay with PC-3 prostate and with SN12C renal was greater than 100 µM in each case.

Turning to `O=C(O)C1C2C=CC(C2)C1C(=O)O` (configuration not stated), the GI50 in the assay on A498 renal, in the assay with ACHN renal, in the assay on HCT-116 colon, in the assay on HCT-15 colon, in the assay with MDA-MB-435 and in the assay with NCI/ADR-RES ovarian was greater than 100 µM in each case. The GI50 in the assay with OVCAR-3 ovarian, in the assay with OVCAR-8 ovarian, in the assay on PC-3 prostate and with SN12C renal was greater than 100 µM throughout. Further, the TGI in the assay on A498 renal, with ACHN renal, in the assay with HCT-116 colon, with HCT-15 colon, in the assay on MDA-MB-435 and in the assay with NCI/ADR-RES ovarian was greater than 100 µM in each case. Also, the TGI with OVCAR-3 ovarian, in the assay with OVCAR-8 ovarian, in the assay with PC-3 prostate and in the assay with SN12C renal was greater than 100 µM in each case.

On to `CN1CC[C@]2(c3cccc(O)c3)CC(=O)/C(=C/c3ccccc3)[C@H]1C2`, for which the TGI turned out to be 21.1 µM with A498 renal; 7.03 µM in the assay with ACHN renal; 7.29 µM in the assay with HCT-116 colon; 10.6 µM with HCT-15 colon; 8.96 µM with MDA-MB-435; 7.35 µM with NCI/ADR-RES ovarian. Also, the TGI turned out to be 6.95 µM in the assay on OVCAR-3 ovarian, 9.46 µM with OVCAR-8 ovarian, 12.9 µM with PC-3 prostate and 11.4 µM with SN12C renal. Moreover, the GI50 with HCT-15 colon was 2.5 µM; with MDA-MB-435 it was 2.08 µM; in the assay with NCI/ADR-RES ovarian, 2.42 µM; with OVCAR-3 ovarian, 2.64 µM; in the assay with PC-3 prostate it was 3.22 µM.

Values taken from PubChem BioAssay (NCI).
